Data taken from BindingDB's records for doi:10.1021/acs.jmedchem.7b01709 (Kobe Gakuin University, 2018).

What was measured:
[1] = Inhibition of protease L10F/V32I/M46I/I47V/Q58E/I84V mutant in HIV1 A17 infected in human MT4 cells assessed as reduction in virus-induced cytopathic effect after 5 days by MTT assay
[2] = Inhibition of DRV-resistant protease V32I/L33F/I54M/V82I mutant in HIV1 transfected in 293T cells after 48 hrs by lentiviral vector-based luciferase reporter gene assay
[3] = Inhibition of DRV-resistant protease V32I/L33F/I54M/I84V mutant in HIV1 transfected in 293T cells after 48 hrs by lentiviral vector-based luciferase reporter gene assay

Structure (SMILES)	EC50 [1]	EC50 [2]	EC50 [3]
Cc1cccc(C)c1CNC(=O)[C@H]1N(C(=O)[C@@H](O)[C@H](Cc2ccccc2)NC(=O)[C@@H](NC(=O)COc2cccc(N(C)C)c2)[C@H]2CCOC2)CSC1(C)C	165 nM		
Cc1cccc(C)c1CNC(=O)[C@H]1N(C(=O)[C@@H](O)[C@H](Cc2ccccc2)NC(=O)[C@@H](NC(=O)COc2cccc(Nc3ccccc3)c2)[C@H]2CCOC2)CSC1(C)C	226 nM		
COc1cccc2cc(C(=O)N[C@H](C(=O)N[C@@H](Cc3ccccc3)[C@H](O)C(=O)N3CSC(C)(C)[C@H]3C(=O)NCc3c(C)cccc3C)[C@H]3CCOC3)oc12	25 nM	0.3 nM	1.2 nM
Cc1cccc(C)c1CNC(=O)[C@H]1N(C(=O)[C@@H](O)[C@H](Cc2ccccc2)NC(=O)[C@@H](NC(=O)c2cc3ccccc3o2)C(C)C)CSC1(C)C	1100 nM		
Cc1cccc(C)c1CNC(=O)[C@H]1N(C(=O)[C@@H](O)[C@H](Cc2ccccc2)NC(=O)[C@H](CC(N)=O)NC(=O)c2cc3ccccc3o2)CSC1(C)C	61 nM		
COc1cccc2cc(C(=O)N[C@H](C(=O)N[C@@H](Cc3ccccc3)[C@H](O)C(=O)N3CSC(C)(C)[C@H]3C(=O)NCc3c(C)cccc3C)C(C)C)oc12	309 nM		
Cc1cccc(C)c1CNC(=O)[C@H]1N(C(=O)[C@@H](O)[C@H](Cc2ccccc2)NC(=O)[C@@H](NC(=O)c2cc3ccccc3o2)[C@H]2CCOC2)CSC1(C)C	678 nM		
Cc1ccccc1CNC(=O)[C@H]1N(C(=O)[C@@H](O)[C@H](Cc2ccccc2)NC(=O)[C@@H](NC(=O)c2cnc3ccccc3n2)[C@H]2CCOC2)CSC1(C)C	95 nM		
Cc1ccccc1CNC(=O)[C@H]1N(C(=O)[C@@H](O)[C@H](Cc2ccccc2)NC(=O)c2cccc(O)c2C)CSC1(C)C [AG1776]	2730 nM		
COc1cccc2cc(C(=O)N[C@@H](CC(N)=O)C(=O)N[C@@H](Cc3ccccc3)[C@H](O)C(=O)N3CSC(C)(C)[C@H]3C(=O)NCc3c(C)cccc3C)oc12	84 nM		
